Assay results as given in patent US11667629B2, “Isoxazole derivative, preparation method therefor, and use thereof” (SICHUAN KELUN-BIOTECH BIOPHARMACEUTICAL CO., LTD., priority 2017, dated 2023).

Assays:
FXR [1] = biological target: T1, FXR (Homo sapiens, UniProt Q96RI1); assay: Bile acid receptor FXR coactivator binding assay (LanthaScreen TR-FRET); format: biochemical; settings: for EC50: TR-FRET coactivator assay, four-parameter fit, read-out: EC50 of the compounds on FXR; for Emax: read-out: Relative activation effect
T1 construct: purchased Invitrogen
Method: The Invitrogen⋅LanthaScreen™ TR-FRET Farnesoid X Receptor Coactivator Assay kit was employed to determine the activation effect of the compounds on FXR.
After the receptor was incubated with the test compound at various concentrations at room temperature, the fluorescent-labeled coactivator short peptides and terbium-labeled antibody were added, and the FRET signal was detected after the reaction was complete at room temperature. The group without the receptor protein was employed as a blank, the activation effect (EC50) and maximum activation effect signal value (Emax) of the test compounds on FXR were calculated according to the four-parameter fitting equation: y=E min+(E max−E min)/(1+(x/EC50)^(−Hillslope))

[2] = Pharmacokinetics (PK) and liver tissue distribution in rats; format: in vivo, rat
Method: The test compound was administered to male SD rats by intravenous (IV) and by gavage (PO), and the pharmacokinetics and liver tissue distribution characteristics of the test compound were evaluated. The doses of the IV and PO administration were respectively 1 mg/kg and 5 mg/kg. The vehicle for IV was 5% DMSO:5% Solutol:90% physiological saline, and the vehicle for PO was 0.5% MC. Blood and liver were collected at various time points after the IV and PO administration. The blood was treated with EDTA. K2 for anticoagulation, and was centrifuged to obtain a plasma sample; the liver was homogenized and stored at −80° C. The plasma and liver samples were analyzed by LC-MS/MS after being subjected to protein precipitation.
By employing the WinNonlin 6.3 software, the pharmacokinetic parameters were calculated according to a non-compartment model.

FXR [3] = biological target: T2, FXR (Homo sapiens, UniProt Q96RI1); assay: Luciferase reporter gene assay (HEK293 cotransfected with FXR and human BSEP luciferase reporter); format: cell-based; settings: for EC50: HEK293, 18 hours incubation; for Emax: HEK293, maximum activation effect, relative signal percentage, blank well = 100%
T2 construct: expressed in transfected cells; host or cells: HEK293
T2 sequence (Q96RI1 1-486): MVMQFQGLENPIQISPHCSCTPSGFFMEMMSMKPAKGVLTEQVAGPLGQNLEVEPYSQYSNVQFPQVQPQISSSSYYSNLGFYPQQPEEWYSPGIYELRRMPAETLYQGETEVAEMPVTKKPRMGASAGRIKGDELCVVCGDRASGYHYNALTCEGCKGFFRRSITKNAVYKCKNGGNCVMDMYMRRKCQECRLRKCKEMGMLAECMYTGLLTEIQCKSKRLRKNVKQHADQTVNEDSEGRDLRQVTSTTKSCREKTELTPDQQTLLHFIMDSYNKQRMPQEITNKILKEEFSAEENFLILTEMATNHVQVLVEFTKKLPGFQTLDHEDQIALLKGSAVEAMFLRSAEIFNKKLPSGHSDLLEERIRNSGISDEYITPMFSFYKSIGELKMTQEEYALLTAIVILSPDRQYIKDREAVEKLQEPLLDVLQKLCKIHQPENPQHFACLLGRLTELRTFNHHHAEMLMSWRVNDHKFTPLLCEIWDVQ
Method: Human embryonic kidney cells HEK293 were cultured in a DMEM medium containing 10% FBS. Plasmids were cotransfected to allow the cells to have over expression of FXR and human BSEP luciferase reporter genes. The transfected cells were digested, resuspended, counted, and plated in a multi-well plate. 10 μL of the test compound at various concentrations was added to the multi-well plate to result in final concentrations of 64 μM, 16 μM, 4 μM, 1 μM, 0.25 μM, 0.0625 μM, 0.0156 μM, 0.0039 μM, 0.000975 μM, 0.000244 μM, 0 μM, and the final concentration of DMSO was 0.5%. After the test compound was incubated with the cells for 18 hours, the Brigh-Glo™ detection reagent was added, and the chemical light unit value (RLU) was detected by a multifunctional automatic microplate reader. Taking the signal value of the blank well (without the test compound) as 100%, the relative signal percentage (%) at each concentration of the test compound was calculated. The SigmaPlot 10 software was employed to fit the EC50 and the maximum activation effect Emax (relative signal percentage) of the test compounds using a four-parameter model.

[4] = IV, 1 mg/kg, male SD rats, plasma
[5] = PO, 5 mg/kg, male SD rats, blood
[6] = PO, 5 mg/kg, male SD rats, liver

SMILES	EC50 (FXR [1])	Emax (FXR [1])	EC50 (FXR [3])	Emax (FXR [3])	further results
O=C(O)c1cccc(-c2csc(N3CCC(OCc4c(-c5c(Cl)cccc5Cl)noc4C4CC4)CC3)n2)c1 [Compound C1, 3-(2-(4-((5-cyclopropyl-3-(2,6-dichlorophenyl)isoxazol-4-yl)methoxy)piperidin-1-yl)thiazol-4-yl)benzoic acid]	178 ± 21 nM	–	–	–	–
O=C(O)c1ccc(-c2csc(N3CCC(OCc4c(-c5c(Cl)cccc5Cl)noc4C4CC4)CC3)n2)cc1 [Compound C2, 4-(2-(4-((5-cyclopropyl-3-(2,6-dichlorophenyl)isoxazol-4-yl)methoxy)piperidin-1-yl)thiazol-4-yl)benzoic acid]	12 ± 4 nM	101%	20 ± 10 nM	248%	AUClast [2, 4]: 2409 ± 108 ng·h/mL; Cmax [2, 4]: 4343 ± 172 ng/mL; AUClast (blood) [2, 5]: 1177 ± 304 ng·h/mL; Cmax (blood) [2, 5]: 252 ± 30 ng/mL; AUClast (liver) [2, 6]: 14941 ± 4276 ng·h/g; Cmax (liver) [2, 6]: 3367 ± 830 ng/g; liver enrichment ([2]; PO, 5 mg/kg, rats, liver versus blood exposure): significant liver enrichment effect
Cn1nc(C(=O)O)cc1-c1ccc(N2CCC(OCc3c(-c4c(Cl)cccc4Cl)noc3C3CC3)CC2)cc1 [Compound C3, 5-(4-(4-((5-cyclopropyl-3-(2,6-dichlorophenyl)isoxazol-4-yl)methoxy)piperidin-1-yl)phenyl)-1-methyl-1H-pyrazole-3-carboxylic acid]	42 ± 7 nM	–	–	–	–
Cn1nc(-c2ccc(N3CCC(OCc4c(-c5c(Cl)cccc5Cl)noc4C4CC4)CC3)cc2)cc1C(=O)O [Compound C4, 3-(4-(4-((5-cyclopropyl-3-(2,6-dichlorophenyl)isoxazol-4-yl)methoxy)piperidin-1-yl)phenyl)-1-methyl-1H-pyrazole-5-carboxylic acid]	10 ± 1 nM	102%	40 ± 10 nM	255%	–
Cn1nc(C(=O)O)cc1-c1cccc(N2CCC(OCc3c(-c4c(Cl)cccc4Cl)noc3C3CC3)CC2)c1 [Compound C6, 5-(3-(4-((5-cyclopropyl-3-(2,6-dichlorophenyl)isoxazol-4-yl)methoxy)piperidin-1-yl)phenyl)-1-methyl-1H-pyrazole-3-carboxylic acid]	206 ± 18 nM	–	–	–	–
O=C(O)c1ccc(-c2csc(N3[C@@H]4CC[C@H]3C[C@@H](OCc3c(-c5ccccc5OC(F)(F)F)noc3C3CC3)C4)n2)s1 [Compound C35, 5-(2-((1R,3r,5S)-3-((5-cyclopropyl-3-(2-(trifluoromethoxy)phenyl)isoxazol-4-yl)methoxy)-8-azabicyclo[3.2.1]octan-8-yl)thiazol-4-yl)thiophene-2-carboxylic acid]	13 ± 3 nM	152%	91 ± 38 nM	378%	–
Cc1cc(C(=O)O)ccc1-c1csc(N2[C@@H]3CC[C@H]2C[C@@H](OCc2c(-c4c(Cl)cccc4Cl)noc2C2CC2)C3)n1 [Compound C37, 4-(2-((1R,3r,5S)-3-((5-cyclopropyl-3-(2,6-dichlorophenyl)isoxazol-4-yl)methoxy)-8-azabicyclo[3.2.1]octan-8-yl)thiazol-4-yl)-3-methylbenzoic acid]	15 ± 1 nM	139%	6 ± 2 nM	411%	–
O=C(O)c1ccc(-c2csc(N3[C@@H]4CC[C@H]3C[C@@H](OCc3c(-c5ccccc5OC(F)(F)F)noc3C3CC3)C4)n2)cc1 [Compound C41, 4-(2-((1R,3r,5S)-3-((5-cyclopropyl-3-(2-(trifluoromethoxy)phenyl)isoxazol-4-yl)methoxy)-8-azabicyclo[3.2.1]octan-8-yl)thiazol-4-yl)benzoic acid]	–	–	58 ± 23 nM	252%	–
Cc1cc(C(=O)O)ccc1-c1csc(N2[C@@H]3CC[C@H]2C[C@@H](OCc2c(-c4ccccc4OC(F)(F)F)noc2C2CC2)C3)n1 [Compound C42, 4-(2-((1R,3r,5S)-3-((5-cyclopropyl-3-(2-(trifluoromethoxy)phenyl)isoxazol-4-yl)methoxy)-8-azabicyclo[3.2.1]octan-8-yl)thiazol-4-yl)-3-methylbenzoic acid]	–	–	33 ± 18 nM	320%	–
O=C(O)c1ccc(-c2csc(N3[C@@H]4CC[C@H]3C[C@@H](OCc3c(-c5ccccc5OC(F)(F)F)noc3C3CC3)C4)n2)c(F)c1 [Compound C43, 4-(2-((1R,3r,5S)-3-((5-cyclopropyl-3-(2-(trifluoromethoxy)phenyl)isoxazol-4-yl)methoxy)-8-azabicyclo[3.2.1]octan-8-yl)thiazol-4-yl)-3-fluorobenzoic acid]	–	–	37 ± 19 nM	343%	–
O=C(O)c1ccc(-c2csc(N3[C@@H]4CC[C@H]3C[C@@H](OCc3c(-c5ccccc5OC(F)(F)F)noc3C3CC3)C4)n2)cc1F [Compound C44, 4-(2-((1R,3r,5S)-3-((5-cyclopropyl-3-(2-(trifluoromethoxy)phenyl)isoxazol-4-yl)methoxy)-8-azabicyclo[3.2.1]octan-8-yl)thiazol-4-yl)-2-fluorobenzoic acid]	22 ± 5 nM	137%	21 ± 6 nM	322%	–
O=C(O)c1ccc(-c2csc(N3[C@@H]4CC[C@H]3C[C@@H](OCc3c(-c5ccccc5OC(F)(F)F)noc3C3CC3)C4)n2)c(C(F)(F)F)c1 [Compound C45, 4-(2-((1R,3r,5S)-3-((5-cyclopropyl-3-(2-(trifluoromethoxy)phenyl)isoxazol-4-yl)methoxy)-8-azabicyclo[3.2.1]octan-8-yl)thiazol-4-yl)-3-(trifluoromethyl)benzoic acid]	110 ± 21 nM	113%	–	–	–
O=C(O)c1cc(-c2csc(N3[C@@H]4CC[C@H]3C[C@@H](OCc3c(-c5ccccc5OC(F)(F)F)noc3C3CC3)C4)n2)cs1 [Compound C47, 4-(2-((1R,3r,5S)-3-((5-cyclopropyl-3-(2-(trifluoromethoxy)phenyl)isoxazol-4-yl)methoxy)-8-azabicyclo[3.2.1]octan-8-yl)thiazol-4-yl)thiophene-2-carboxylic acid]	–	–	19 ± 7 nM	370%	–
O=C(O)c1csc(-c2csc(N3[C@@H]4CC[C@H]3C[C@@H](OCc3c(-c5ccccc5OC(F)(F)F)noc3C3CC3)C4)n2)c1 [Compound C48, 5-(2-((1R,3r,5S)-3-((5-cyclopropyl-3-(2-(trifluoromethoxy)phenyl)isoxazol-4-yl)methoxy)-8-azabicyclo[3.2.1]octan-8-yl)thiazol-4-yl)thiophene-3-carboxylic acid]	–	–	39 ± 17 nM	382%	–
O=C(O)c1ccc(-c2csc(N3[C@@H]4CC[C@H]3C[C@@H](OCc3c(-c5ccccc5OC(F)(F)F)noc3C3CC3)C4)n2)cn1 [Compound C50, 5-(2-((1R,3r,5S)-3-((5-cyclopropyl-3-(2-(trifluoromethoxy)phenyl)isoxazol-4-yl)methoxy)-8-azabicyclo[3.2.1]octan-8-yl)thiazol-4-yl)picolinic acid]	31 ± 8 nM	177%	–	–	–
